Measured values: patent US12599136B2, “Substituted isophthalic acid diamides and their use as herbicides” (Bayer Aktiengesellschaft, priority 2020, dated 2026)

Tests used:
Assay type in all cases: in vivo
Matricaria inodora [1] = assay: Pre-emergence herbicidal action against MATIN; conditions: visual score after 3 weeks vs untreated controls
Method in brief: (§1)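 Seeds sown in sandy loam, soil-covered; compound sprayed on soil surface pre-emergence. Application: WP/EC, 600–800 l/ha, 0.2% wetting agent. Readout: visual % damage at 3 weeks.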

Setaria viridis [2] = assay: Pre-emergence herbicidal action against SETVI
Method in brief: as §1

Abutilon theophrasti [3] = assay: Pre-emergence herbicidal action against ABUTH; conditions: visual score after 3 weeks vs untreated controls
Method in brief: as §1

Abutilon theophrasti [4] = assay: Post-emergence herbicidal action against ABUTH
Method in brief: (§2)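 Percent herbicidal action is rated by eye about 3 weeks after treatment against untreated controls, where 100% means dead plants and 0% means like controls. Plants in sandy loam are sprayed on green parts at the one-leaf stage with aqueous WP or EC preparations at 600 to 800 l/ha plus 0.2% wetting agent.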

Alopecurus myosuroides [5] = assay: Post-emergence herbicidal action against ALOMY
Method in brief: as §2

Alopecurus myosuroides [6] = assay: Pre-emergence herbicidal action against ALOMY; conditions: 80 g/ha; visual score after 3 weeks vs untreated controls
Method in brief: as §1

Lolium rigidum = assay: Pre-emergence herbicidal action against LOLRI; conditions: 80 g/ha
Method in brief: as §1

Pharbitis purpurea [7] = assay: Pre-emergence herbicidal action against PHBPU; conditions: visual score after 3 weeks vs untreated controls
Text: (§3) Seeds of monocotyledonous and dicotyledonous weed plants and crop plants are laid out in sandy loam soil in wood-fiber pots and covered with soil. The compounds of the invention, formulated in the form of wettable powders (WP) or as emulsion concentrates (EC), are then applied to the surface of the covering soil in the form of an aqueous suspension or emulsion at a water application rate equivalent to 600 to 800 l/ha, with addition of 0.2% wetting agent. After the treatment, the pots are placed in a greenhouse and kept under good growth conditions for the trial plants. The damage to the test plants is scored visually after a test period of 3 weeks by comparison with untreated controls (herbicidal activity in percent (%): 100% activity=the plants have died, 0% activity=like control plants). […] The tables below illustrate, in an illustrative manner, the post-emergence herbicidal action of the compounds of the invention, the herbicidal activity being stated in percent.

Amaranthus retroflexus [8] = assay: Post-emergence herbicidal action against AMARE; conditions: visual assessment about 3 weeks after treatment
Method in brief: as §2

Echinochloa crus-galli [9] = assay: Post-emergence herbicidal action against ECHCG; conditions: visual assessment about 3 weeks after treatment
Method in brief: as §2

Viola tricolor [10] = assay: Pre-emergence herbicidal action against VIOTR
Method in brief: as §1

Echinochloa crus-galli [11] = assay: Pre-emergence herbicidal action against ECHCG; conditions: visual score after 3 weeks vs untreated controls
Method in brief: as §1

Setaria viridis [12] = assay: Post-emergence herbicidal action against SETVI; conditions: 20 g/ha, visual assessment about 3 weeks after treatment
Method in brief: as §2

Veronica persica [13] = assay: Post-emergence herbicidal action against VERPE; conditions: 20 g/ha, visual assessment about 3 weeks after treatment
Method in brief: as §2

Viola tricolor [14] = assay: Post-emergence herbicidal action against VIOTR
Method in brief: as §2

Amaranthus retroflexus [15] = assay: Pre-emergence herbicidal action against AMARE; conditions: visual score after 3 weeks vs untreated controls
Method in brief: as §1

Avena fatua [16] = assay: Pre-emergence herbicidal action against AVEFA; conditions: visual score after 3 weeks vs untreated controls
Method in brief: as §1

Matricaria inodora [17] = assay: Post-emergence herbicidal action against MATIN; conditions: visual assessment about 3 weeks after treatment
Method in brief: as §2

Digitaria sanguinalis = assay: Pre-emergence herbicidal action against DIGSA
Method in brief: as §1

Polygonum convolvulus = assay: Pre-emergence herbicidal action against POLCO
Method in brief: as §1

Avena fatua [18] = assay: Post-emergence herbicidal action against AVEFA; conditions: visual assessment about 3 weeks after treatment
Method in brief: as §2

Veronica persica [19] = assay: Pre-emergence herbicidal action against VERPE
Method in brief: as §1

Pharbitis purpurea [20] = assay: Post-emergence herbicidal action against PHBPU; conditions: visual assessment about 3 weeks after treatment
Method in brief: as §2

Cyperus esculentus = assay: Pre-emergence herbicidal action against CYPES; conditions: visual score after 3 weeks vs untreated controls
Text: as §3

Stellaria media [21] = assay: Pre-emergence herbicidal action against STEME
Text: as §3

Stellaria media [22] = assay: Post-emergence herbicidal action against STEME; conditions: visual assessment about 3 weeks after treatment
Experimental: Seeds of monocotyledonous and dicotyledonous weed and crop plants are laid out in sandy loam soil in wood-fiber pots, covered with soil and cultivated in a greenhouse under good growth conditions. 2 to 3 weeks after sowing, the test plants are treated at the one-leaf stage. The compounds of the invention, formulated in the form of wettable powders (WP) or as emulsion concentrates (EC), are then sprayed onto the green parts of the plants in the form of an aqueous suspension or emulsion at a water application rate equivalent to 600 to 800 l/ha, with addition of 0.2% wetting agent. After the test plants have been left to stand in the greenhouse under optimal growth conditions for about 3 weeks, the action of the preparations is assessed visually in comparison to untreated controls (herbicidal action in percent (%): 100% activity=the plants have died, 0% activity=like control plants). […] The tables below illustrate, in an illustrative manner, the post-emergence herbicidal action of the compounds of the invention, the herbicidal activity being stated in percent.

CCN(C(=O)c1c(C(F)F)ccc(C(=O)Nc2nnnn2C)c1Cl)C1CC1 [Example 1-167]
80%: Pre-emergence action against MATIN (Matricaria inodora [1]; 20 g/ha) | Pre-emergence action against PHBPU (Pharbitis purpurea [7]; 80 g/ha) | Post-emergence action against ECHCG in % (Echinochloa crus-galli [9]; 20 g/ha) | Post-emergence action against VIOTR in % (Viola tricolor [14]; 5 g/ha) | Post-emergence action against MATIN in % (Matricaria inodora [17]; 20 g/ha)
100%: Pre-emergence action against MATIN (Matricaria inodora [1]; 80 g/ha) | Pre-emergence action against SETVI (Setaria viridis [2]; 80 g/ha) | Pre-emergence action against ABUTH (Abutilon theophrasti [3]; 20 g/ha) | Pre-emergence action against ABUTH (Abutilon theophrasti [3]; 80 g/ha) | Pre-emergence action against ALOMY (Alopecurus myosuroides [6]) | Post-emergence action against AMARE in % (Amaranthus retroflexus [8]; 5 g/ha) | Post-emergence action against AMARE in % (Amaranthus retroflexus [8]; 20 g/ha) | Pre-emergence action against VIOTR (Viola tricolor [10]; 80 g/ha) | Post-emergence action against SETVI in % (Setaria viridis [12]) | Pre-emergence action against AMARE (Amaranthus retroflexus [15]; 20 g/ha) | Pre-emergence action against AMARE (Amaranthus retroflexus [15]; 80 g/ha)
90%: Post-emergence action against ABUTH (Abutilon theophrasti [4]; 5 g/ha) | Post-emergence action against ABUTH (Abutilon theophrasti [4]; 20 g/ha) | Post-emergence action against ALOMY (Alopecurus myosuroides [5]; 5 g/ha) | Post-emergence action against ALOMY (Alopecurus myosuroides [5]; 20 g/ha) | Pre-emergence action against LOLRI (Lolium rigidum) | Pre-emergence action against VIOTR (Viola tricolor [10]; 20 g/ha) | Pre-emergence action against ECHCG (Echinochloa crus-galli [11]; 80 g/ha) | Post-emergence action against VERPE in % (Veronica persica [13]) | Post-emergence action against VIOTR in % (Viola tricolor [14]; 20 g/ha) | Pre-emergence action against AVEFA (Avena fatua [16]; 80 g/ha)

CCn1nnnc1NC(=O)c1ccc(C(F)(F)F)c(C(=O)N(C)CC(F)F)c1Cl [Example 2-128]
80%: Post-emergence action against ABUTH (Abutilon theophrasti [4]; 5 g/ha) | Post-emergence action against ABUTH (Abutilon theophrasti [4]; 20 g/ha) | Post-emergence action against AVEFA in % (Avena fatua [18]; 20 g/ha) | Pre-emergence action against PHBPU (Pharbitis purpurea [7]; 80 g/ha) | Post-emergence action against ECHCG in % (Echinochloa crus-galli [9]; 20 g/ha) | Post-emergence action against SETVI in % (Setaria viridis [12]) | Post-emergence action against VERPE in % (Veronica persica [13]) | Post-emergence action against PHBPU in % (Pharbitis purpurea [20]; 5 g/ha) | Post-emergence action against PHBPU in % (Pharbitis purpurea [20]; 20 g/ha) | Post-emergence action against MATIN in % (Matricaria inodora [17]; 5 g/ha)
90%: Pre-emergence action against DIGSA (Digitaria sanguinalis; 20 g/ha) | Pre-emergence action against ECHCG (Echinochloa crus-galli [11]; 80 g/ha) | Post-emergence action against MATIN in % (Matricaria inodora [17]; 20 g/ha)
100%: Pre-emergence action against DIGSA (Digitaria sanguinalis; 80 g/ha) | Pre-emergence action against MATIN (Matricaria inodora [1]; 20 g/ha) | Pre-emergence action against MATIN (Matricaria inodora [1]; 80 g/ha) | Pre-emergence action against SETVI (Setaria viridis [2]; 80 g/ha) | Pre-emergence action against ABUTH (Abutilon theophrasti [3]; 80 g/ha) | Pre-emergence action against POLCO (Polygonum convolvulus; 80 g/ha) | Pre-emergence action against ALOMY (Alopecurus myosuroides [6]) | Pre-emergence action against VIOTR (Viola tricolor [10]; 20 g/ha) | Pre-emergence action against VIOTR (Viola tricolor [10]; 80 g/ha) | Pre-emergence action against VERPE (Veronica persica [19]; 80 g/ha) | Pre-emergence action against AMARE (Amaranthus retroflexus [15]; 20 g/ha) | Pre-emergence action against AMARE (Amaranthus retroflexus [15]; 80 g/ha) | Pre-emergence action against AVEFA (Avena fatua [16]; 80 g/ha)

CCCn1nnnc1NC(=O)c1ccc(C(F)(F)F)c(C(=O)n2cccn2)c1Cl [Example 3-153]
100%: Pre-emergence action against MATIN (Matricaria inodora [1]; 80 g/ha) | Pre-emergence action against MATIN (Matricaria inodora [1]; 320 g/ha) | Pre-emergence action against SETVI (Setaria viridis [2]; 80 g/ha) | Pre-emergence action against SETVI (Setaria viridis [2]; 320 g/ha) | Pre-emergence action against ABUTH (Abutilon theophrasti [3]; 20 g/ha) | Pre-emergence action against ABUTH (Abutilon theophrasti [3]; 80 g/ha) | Pre-emergence action against ABUTH (Abutilon theophrasti [3]; Dosage column 320 g/ha (heading prints 3200 g/ha)) | Pre-emergence action against STEME (Stellaria media [21]; 80 g/ha) | Pre-emergence action against STEME (Stellaria media [21]; 320 g/ha) | Post-emergence action against STEME in % (Stellaria media [22]; 5 g/ha) | Post-emergence action against STEME in % (Stellaria media [22]; 20 g/ha) | Post-emergence action against STEME in % (Stellaria media [22]; 80 g/ha) | Pre-emergence action against PHBPU (Pharbitis purpurea [7]; 320 g/ha) | Post-emergence action against AMARE in % (Amaranthus retroflexus [8]; 80 g/ha) | Post-emergence action against ECHCG in % (Echinochloa crus-galli [9]; 80 g/ha) | Pre-emergence action against VIOTR (Viola tricolor [10]; 80 g/ha) | Pre-emergence action against VIOTR (Viola tricolor [10]; 320 g/ha) | Pre-emergence action against ECHCG (Echinochloa crus-galli [11]; 320 g/ha) | Pre-emergence action against AMARE (Amaranthus retroflexus [15]; 20 g/ha) | Pre-emergence action against AMARE (Amaranthus retroflexus [15]; 80 g/ha) | Pre-emergence action against AMARE (Amaranthus retroflexus [15]; 320 g/ha) | Post-emergence action against MATIN in % (Matricaria inodora [17]; 80 g/ha)
90%: Pre-emergence action against SETVI (Setaria viridis [2]; 20 g/ha) | Pre-emergence action against STEME (Stellaria media [21]; 20 g/ha) | Post-emergence action against ABUTH (Abutilon theophrasti [4]; 5 g/ha) | Post-emergence action against ABUTH (Abutilon theophrasti [4]; 20 g/ha) | Post-emergence action against ABUTH (Abutilon theophrasti [4]; 80 g/ha) | Pre-emergence action against POLCO (Polygonum convolvulus; 320 g/ha) | Post-emergence action against AMARE in % (Amaranthus retroflexus [8]; 5 g/ha) | Post-emergence action against AMARE in % (Amaranthus retroflexus [8]; 20 g/ha) | Pre-emergence action against VIOTR (Viola tricolor [10]; 20 g/ha) | Pre-emergence action against ECHCG (Echinochloa crus-galli [11]; 80 g/ha) | Pre-emergence action against VERPE (Veronica persica [19]; 320 g/ha) | Post-emergence action against VIOTR in % (Viola tricolor [14]; 80 g/ha) | Pre-emergence action against AVEFA (Avena fatua [16]; 320 g/ha) | Post-emergence action against PHBPU in % (Pharbitis purpurea [20]; 80 g/ha) | Post-emergence action against MATIN in % (Matricaria inodora [17]; 20 g/ha)
80%: Pre-emergence action against MATIN (Matricaria inodora [1]; 20 g/ha) | Pre-emergence action against CYPES (Cyperus esculentus; 80 g/ha) | Pre-emergence action against CYPES (Cyperus esculentus; 320 g/ha) | Post-emergence action against AVEFA in % (Avena fatua [18]; 80 g/ha) | Post-emergence action against ECHCG in % (Echinochloa crus-galli [9]; 20 g/ha) | Post-emergence action against PHBPU in % (Pharbitis purpurea [20]; 5 g/ha) | Post-emergence action against PHBPU in % (Pharbitis purpurea [20]; 20 g/ha) | Post-emergence action against MATIN in % (Matricaria inodora [17]; 5 g/ha)
